Source: patent publication US20090253667A1, “18 ,21-Didesoxymacbecin Derivatives for the Treatment of Cancer” (priority 2006, published 2009)
pKd: −log10 of the molar value. Each block holds one compound with its values, some of them ahead of it.

Experiments:
Yeast Hsp90 = Yeast Hsp90 (Saccharomyces cerevisiae, UniProt P02829); assay: Isothermal titration calorimetry, Kd for Hsp90 binding; details: ITC at 30° C., 0.008 mM yeast Hsp90, 2% DMSO
Method: Yeast Hsp90 was dialysed against 20 mM Tris pH 7.5 containing 1 mM EDTA and 5 mM NaCl and then diluted to 0.008 mM in the same buffer, but containing 2% DMSO. The test compounds were dissolved in 100% DMSO at a concentration of 50 mM and subsequently diluted to 0.1 mM in the same buffer as for Hsp90 with 2% DMSO. Heats of interaction were measured at 30° C. on a MSC system (Microcal), with a cell volume of 1.458 mL. 10 aliquots of 0.027 mL of 0.100 mM of each test compound were injected into 0.008 mM yeast Hsp90. Heats of dilution were determined in a separate experiment by injecting the test compound into buffer containing 2% DMSO, and the corrected data fitted using a nonlinear least square curve-fitting algorithm (Microcal Origin) with three floating variables: stoichiometry, binding constant and change in enthalpy of interaction.

[1] = system: panel of human tumour cell lines; assay: Monolayer proliferation assay, mean IC70 across the cell line panel; format: cell-based; details: geometric mean of all replicates across the six cell lines
Method: (§1) In vitro evaluation of compounds for anticancer activity in a panel of human tumour cell lines in a monolayer proliferation assay were carried out at the Oncotest Testing Facility, Institute for Experimental Oncology, Oncotest GmbH, Freiburg.
(§2) The Oncotest cell lines were established from human tumor xenografts as described by Roth et al., (1999). The origin of the donor xenografts was described by Fiebig et al., (1999). Other cell lines were either obtained from the NCI (DU145, MCF-7) or purchased from DSMZ, Braunschweig, Germany.
(§3) All cell lines, unless otherwise specified, were grown at 37° C. in a humidified atmosphere (95% air, 5% CO2) in a ‘ready-mix’ medium containing RPMI 1640 medium, 10% fetal calf serum, and 0.1 mg/mL gentamicin (PAA, Cölbe, Germany).
(§4) A modified propidium iodide assay was used to assess the effects of the test compound(s) on the growth of human tumour cell lines (Dengler et al., (1995)).
(§5) Briefly, cells were harvested from exponential phase cultures by trypsinization, counted and plated in 96 well flat-bottomed microtitre plates at a cell density dependent on the cell line (5-10.000 viable cells/well). After 24 h recovery to allow the cells to resume exponential growth, 0.010 mL of culture medium (6 control wells per plate) or culture medium containing the 18,21-didesoxymacbecin analogue was added to the wells. Each concentration was plated in triplicate. Compounds were applied in five concentrations (100; 10; 1; 0.1 and 0.01 μg/ml). Following 4 days of continuous exposure, cell culture medium with or without test compound was replaced by 0.2 mL of an aqueous propidium iodide (PI) solution (7 mg/L). To measure the proportion of living cells, cells may be permeabilized by freezing the plates. After thawing the plates, fluorescence was measured using the Cytofluor 4000 microplate reader (excitation 530 nm, emission 620 nm), giving a direct relationship to the total number of viable cells. Growth inhibition may be expressed as treated/control×100 (% T/C). This can be plotted as a graph of % T/C against concentration of test compound applied, which can then be used to calculate the concentration necessary to inhibit cell growth by 70% (IC70).
(§6) In vitro evaluation of the test compounds for anticancer activity in a panel of human tumour cell lines in a monolayer proliferation assay was carried out as described in the general methods using a modified propidium iodide assay.

MEXF 394NL = assay: Monolayer proliferation assay (modified propidium iodide assay); format: cell-based, human; details: 4 days continuous exposure
Method: as §1, §2, §3, §4, §5, §6

LXF 1121L = assay: as above; format: cell-based, human; details: 4 days continuous exposure
Method: as §1, §2, §3, §4, §5, §6

MCF-7 = assay: as above; format: cell-based, human; details: 4 days continuous exposure
Method: as §1, §2, §3, §4, §5, §6

CXF HT29 = assay: as above; format: cell-based, human; details: 4 days continuous exposure
Method: as §1, §2, §3, §4, §5, §6

CNXF 498NL = assay: as above; format: cell-based, human; details: 4 days continuous exposure
Method: as §1, §2, §3, §4, §5, §6

DU145 = assay: as above; format: cell-based, human; details: 4 days continuous exposure
Method: as §1, §2, §3, §4, §5, §6

Hsp90 = Hsp90 (Homo sapiens, UniProt P07900); details: cited from earlier work

Sequence of Yeast Hsp90 (P02829 whole entry): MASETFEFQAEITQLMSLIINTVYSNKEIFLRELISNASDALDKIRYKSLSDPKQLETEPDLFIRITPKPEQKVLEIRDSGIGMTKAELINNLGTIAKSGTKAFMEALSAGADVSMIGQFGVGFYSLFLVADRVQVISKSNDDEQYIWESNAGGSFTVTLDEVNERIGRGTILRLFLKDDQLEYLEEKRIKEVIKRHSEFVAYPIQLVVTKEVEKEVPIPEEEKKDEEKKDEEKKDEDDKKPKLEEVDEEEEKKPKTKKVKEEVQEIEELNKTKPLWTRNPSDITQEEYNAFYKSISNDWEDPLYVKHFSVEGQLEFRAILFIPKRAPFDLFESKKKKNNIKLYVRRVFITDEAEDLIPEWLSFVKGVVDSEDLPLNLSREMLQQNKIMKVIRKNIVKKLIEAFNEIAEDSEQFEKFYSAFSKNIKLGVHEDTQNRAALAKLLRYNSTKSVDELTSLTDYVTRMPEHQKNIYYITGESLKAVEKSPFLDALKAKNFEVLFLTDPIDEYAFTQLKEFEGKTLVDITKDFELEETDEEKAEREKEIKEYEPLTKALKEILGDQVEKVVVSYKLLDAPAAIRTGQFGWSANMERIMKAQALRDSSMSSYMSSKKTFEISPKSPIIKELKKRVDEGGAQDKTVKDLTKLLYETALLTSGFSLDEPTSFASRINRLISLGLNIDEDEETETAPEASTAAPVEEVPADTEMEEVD

Compound: CO[C@H]1C[C@H](C)Cc2cc(O)cc(c2)NC(=O)/C=C/CC[C@H](OC)[C@@H](OC(N)=O)/C(C)=C/[C@H](C)[C@H]1O [KOSN1559]
binding affinity to Hsp90 relative to 17-AAG (Hsp90; greater binding affinity than 17-AAG): 8 fold | binding affinity to Hsp90 relative to geldanamycin (Hsp90; greater binding affinity than geldanamycin): 4 fold

Compound: CO[C@H]1[C@@H](OC)C[C@H](C)[C@@H](OC)C2=CC(=O)C=C(NC(=O)/C(C)=C/C=C\[C@H](C)[C@@H](OC(N)=O)/C(C)=C/[C@@H]1C)C2=O [macbecin]
average IC70 value across the cell-line panel [1]: 0.21 µg/mL

Second part, led by results:

pKd (Yeast Hsp90): 7.72
Compound: CO[C@H]1C[C@H](C)Cc2cc(ccc2F)NC(=O)/C(C)=C/CC[C@H](C)[C@@H](OC(N)=O)/C(C)=C/[C@H](C)[C@H]1O [Compound 17, 4,5-dihydro-11-O-desmethyl-15-desmethoxy-17-fluoro-18,21-didesoxymacbecin]
average IC70 value across the cell-line panel [1]: 0.106 µg/mL | Test/Control (%) at drug concentration (MEXF 394NL; 0.01 μg/mL): 101% | Test/Control (%) at drug concentration (MEXF 394NL; 0.1 μg/mL): 21% | Test/Control (%) at drug concentration (MEXF 394NL; 1 μg/mL): 4% | Test/Control (%) at drug concentration (MEXF 394NL; 10 μg/mL): 3% | Test/Control (%) at drug concentration (MEXF 394NL; 100 μg/mL): 3% | Test/Control (%) at drug concentration (LXF 1121L; 0.01 μg/mL): 100% | Test/Control (%) at drug concentration (LXF 1121L; 0.1 μg/mL): 41% | Test/Control (%) at drug concentration (LXF 1121L; 1 μg/mL): 10% | Test/Control (%) at drug concentration (LXF 1121L; 10 μg/mL): 11% | Test/Control (%) at drug concentration (LXF 1121L; 100 μg/mL): 11% | Test/Control (%) at drug concentration (MCF-7; MCF-7, 0.01 μg/mL): 86% | Test/Control (%) at drug concentration (MCF-7; MCF-7, 0.1 μg/mL): 20% | Test/Control (%) at drug concentration (MCF-7; MCF-7, 1 μg/mL): 10% | Test/Control (%) at drug concentration (MCF-7; MCF-7, 10 μg/mL): 10% | Test/Control (%) at drug concentration (MCF-7; MCF-7, 100 μg/mL): 8% | Test/Control (%) at drug concentration (CXF HT29; CXF HT29, 0.01 μg/mL): 102% | Test/Control (%) at drug concentration (CXF HT29; CXF HT29, 0.1 μg/mL): 49% | Test/Control (%) at drug concentration (CXF HT29; CXF HT29, 1 μg/mL): 7% | Test/Control (%) at drug concentration (CXF HT29; CXF HT29, 10 μg/mL): 7% | Test/Control (%) at drug concentration (CXF HT29; CXF HT29, 100 μg/mL): 8% | Test/Control (%) at drug concentration (CNXF 498NL; 0.01 μg/mL): 97% | Test/Control (%) at drug concentration (CNXF 498NL; 0.1 μg/mL): 22% | Test/Control (%) at drug concentration (CNXF 498NL; 1 μg/mL): 7% | Test/Control (%) at drug concentration (CNXF 498NL; 10 μg/mL): 8% | Test/Control (%) at drug concentration (CNXF 498NL; 100 μg/mL): 7% | Test/Control (%) at drug concentration (DU145; DU145, 0.01 μg/mL): 93% | Test/Control (%) at drug concentration (DU145; DU145, 0.1 μg/mL): 7% | Test/Control (%) at drug concentration (DU145; DU145, 1 μg/mL): 8% | Test/Control (%) at drug concentration (DU145; DU145, 10 μg/mL): 10% | Test/Control (%) at drug concentration (DU145; DU145, 100 μg/mL): 9%

pKd (Yeast Hsp90): 7.70
Compound: CO[C@H]1C[C@H](C)Cc2cccc(c2)NC(=O)/C(C)=C/CC[C@H](C)[C@@H](OC(N)=O)/C(C)=C/[C@H](C)[C@H]1O [Compound 16, 4,5-dihydro-11-O-desmethyl-15-desmethoxy-18,21-didesoxymacbecin]
average IC70 value across the cell-line panel [1]: 0.193 µg/mL | Test/Control (%) at drug concentration (MEXF 394NL; 0.01 μg/mL): 100% | Test/Control (%) at drug concentration (MEXF 394NL; 0.1 μg/mL): 64% | Test/Control (%) at drug concentration (MEXF 394NL; 1 μg/mL): 7% | Test/Control (%) at drug concentration (MEXF 394NL; 10 μg/mL): 5% | Test/Control (%) at drug concentration (MEXF 394NL; 100 μg/mL): 3% | Test/Control (%) at drug concentration (LXF 1121L; 0.01 μg/mL): 106% | Test/Control (%) at drug concentration (LXF 1121L; 0.1 μg/mL): 48% | Test/Control (%) at drug concentration (LXF 1121L; 1 μg/mL): 10% | Test/Control (%) at drug concentration (LXF 1121L; 10 μg/mL): 7% | Test/Control (%) at drug concentration (LXF 1121L; 100 μg/mL): 5% | Test/Control (%) at drug concentration (MCF-7; MCF-7, 0.01 μg/mL): 83% | Test/Control (%) at drug concentration (MCF-7; MCF-7, 0.1 μg/mL): 21% | Test/Control (%) at drug concentration (MCF-7; MCF-7, 1 μg/mL): 10% | Test/Control (%) at drug concentration (MCF-7; MCF-7, 10 μg/mL): 11% | Test/Control (%) at drug concentration (MCF-7; MCF-7, 100 μg/mL): 10% | Test/Control (%) at drug concentration (CXF HT29; CXF HT29, 0.01 μg/mL): 106% | Test/Control (%) at drug concentration (CXF HT29; CXF HT29, 0.1 μg/mL): 52% | Test/Control (%) at drug concentration (CXF HT29; CXF HT29, 1 μg/mL): 8% | Test/Control (%) at drug concentration (CXF HT29; CXF HT29, 10 μg/mL): 7% | Test/Control (%) at drug concentration (CXF HT29; CXF HT29, 100 μg/mL): 6% | Test/Control (%) at drug concentration (CNXF 498NL; 0.01 μg/mL): 100% | Test/Control (%) at drug concentration (CNXF 498NL; 0.1 μg/mL): 19% | Test/Control (%) at drug concentration (CNXF 498NL; 1 μg/mL): 8% | Test/Control (%) at drug concentration (CNXF 498NL; 10 μg/mL): 8% | Test/Control (%) at drug concentration (CNXF 498NL; 100 μg/mL): 6% | Test/Control (%) at drug concentration (DU145; DU145, 0.01 μg/mL): 96% | Test/Control (%) at drug concentration (DU145; DU145, 0.1 μg/mL): 47% | Test/Control (%) at drug concentration (DU145; DU145, 1 μg/mL): 8% | Test/Control (%) at drug concentration (DU145; DU145, 10 μg/mL): 8% | Test/Control (%) at drug concentration (DU145; DU145, 100 μg/mL): 8%

pKd (Yeast Hsp90): 7.63
Compound: CO[C@H]1C[C@H](C)Cc2cc(F)cc(c2)NC(=O)/C(C)=C/CC[C@H](C)[C@@H](OC(N)=O)/C(C)=C/[C@H](C)[C@H]1O [Compound 18, 4,5-dihydro-11-O-desmethyl-15-desmethoxy-18-fluoro-18,21-didesoxymacbecin]
average IC70 value across the cell-line panel [1]: 0.077 µg/mL | Test/Control (%) at drug concentration (MEXF 394NL; 0.01 μg/mL): 91% | Test/Control (%) at drug concentration (MEXF 394NL; 0.1 μg/mL): 24% | Test/Control (%) at drug concentration (MEXF 394NL; 1 μg/mL): 7% | Test/Control (%) at drug concentration (MEXF 394NL; 10 μg/mL): 5% | Test/Control (%) at drug concentration (MEXF 394NL; 100 μg/mL): 4% | Test/Control (%) at drug concentration (LXF 1121L; 0.01 μg/mL): 94% | Test/Control (%) at drug concentration (LXF 1121L; 0.1 μg/mL): 43% | Test/Control (%) at drug concentration (LXF 1121L; 1 μg/mL): 13% | Test/Control (%) at drug concentration (LXF 1121L; 10 μg/mL): 13% | Test/Control (%) at drug concentration (LXF 1121L; 100 μg/mL): 12% | Test/Control (%) at drug concentration (MCF-7; MCF-7, 0.01 μg/mL): 77% | Test/Control (%) at drug concentration (MCF-7; MCF-7, 0.1 μg/mL): 27% | Test/Control (%) at drug concentration (MCF-7; MCF-7, 1 μg/mL): 12% | Test/Control (%) at drug concentration (MCF-7; MCF-7, 10 μg/mL): 12% | Test/Control (%) at drug concentration (MCF-7; MCF-7, 100 μg/mL): 8% | Test/Control (%) at drug concentration (CXF HT29; CXF HT29, 0.01 μg/mL): 98% | Test/Control (%) at drug concentration (CXF HT29; CXF HT29, 0.1 μg/mL): 14% | Test/Control (%) at drug concentration (CXF HT29; CXF HT29, 1 μg/mL): 11% | Test/Control (%) at drug concentration (CXF HT29; CXF HT29, 10 μg/mL): 13% | Test/Control (%) at drug concentration (CXF HT29; CXF HT29, 100 μg/mL): 11% | Test/Control (%) at drug concentration (CNXF 498NL; 0.01 μg/mL): 64% | Test/Control (%) at drug concentration (CNXF 498NL; 0.1 μg/mL): 9% | Test/Control (%) at drug concentration (CNXF 498NL; 1 μg/mL): 9% | Test/Control (%) at drug concentration (CNXF 498NL; 10 μg/mL): 11% | Test/Control (%) at drug concentration (CNXF 498NL; 100 μg/mL): 9% | Test/Control (%) at drug concentration (DU145; DU145, 0.01 μg/mL): 66% | Test/Control (%) at drug concentration (DU145; DU145, 0.1 μg/mL): 9% | Test/Control (%) at drug concentration (DU145; DU145, 1 μg/mL): 8% | Test/Control (%) at drug concentration (DU145; DU145, 10 μg/mL): 9% | Test/Control (%) at drug concentration (DU145; DU145, 100 μg/mL): 6%
